# Experimental data from ChEMBL document CHEMBL6087462, “Cuminaldehyde Potentiates Antiproteolytic Peptide Efficacy via Parallel Pathways of Enhanced Inner Membrane-Damaging Activity and Inhibition of Bacterial Energy Metabolism” (J Med Chem, 2025).
# Experiments:
# [1] = tested on: Pseudomonas aeruginosa; experiment: Synergistic antimicrobial activity against Pseudomonas aeruginosa 27853 assessed as fractional inhibitory concentration index in presence of perillaldehyde by checkerboard broth microdilution assay; assay type: functional
# [2] = tested on: Staphylococcus epidermidis; experiment: Antimicrobial activity against Staphylococcus epidermidis ATCC 12228 assessed as cuminaldehyde MIC by CLSI based broth microdilution method; assay type: functional
# [3] = tested on: Escherichia coli; experiment: Antimicrobial activity against Escherichia coli 078 assessed as cuminaldehyde MIC by CLSI based broth microdilution method; assay type: functional; conditions: 78
# [4] = tested on: Escherichia coli; experiment: Synergistic antimicrobial activity against Escherichia coli 25922 assessed as fractional inhibitory concentration index in presence of carvacrol by checkerboard broth microdilution assay; assay type: functional
# [5] = tested on: Staphylococcus epidermidis; experiment: Synergistic antimicrobial activity against Staphylococcus epidermidis 12228 assessed as fractional inhibitory concentration index in presence of citronellal by checkerboard broth microdilution assay; assay type: functional
# [6] = tested on: Escherichia coli; experiment: Synergistic antimicrobial activity against Escherichia coli K88 assessed as fractional inhibitory concentration index in presence of cuminaldehyde by checkerboard broth microdilution assay; assay type: functional
# [7] = tested on: Staphylococcus aureus; experiment: Synergistic antimicrobial activity against Staphylococcus aureus 43300 assessed as fractional inhibitory concentration index in presence of carvacrol by checkerboard broth microdilution assay; assay type: functional
# [8] = tested on: Staphylococcus aureus; experiment: Antimicrobial activity against Staphylococcus aureus 43300 assessed as reduction in microbial growth by CLSI based broth microdilution method; assay type: functional
# [9] = tested on: Pseudomonas aeruginosa; experiment: Antimicrobial activity against Pseudomonas aeruginosa ATCC 27853 assessed as reduction in microbial growth in presence of cuminaldehyde by CLSI based broth microdilution method; assay type: functional
# [10] = tested on: Staphylococcus aureus; experiment: Antimicrobial activity against Staphylococcus aureus 43300 assessed as reduction in microbial growth in presence of cuminaldehyde by CLSI based broth microdilution method; assay type: functional
# [11] = tested on: Pseudomonas aeruginosa; experiment: Synergistic antimicrobial activity against Pseudomonas aeruginosa ATCC 27853 assessed as fractional inhibitory concentration by checkerboard broth microdilution assay; assay type: functional
# [12] = tested on: Escherichia coli; experiment: Synergistic antimicrobial activity against Escherichia coli 25922 assessed as fractional inhibitory concentration index by checkerboard broth microdilution assay; assay type: functional
# [13] = tested on: Staphylococcus epidermidis; experiment: Synergistic antimicrobial activity against Staphylococcus epidermidis 12228 assessed as fractional inhibitory concentration index in presence of cuminaldehyde by checkerboard broth microdilution assay; assay type: functional
# [14] = tested on: Staphylococcus aureus; experiment: Synergistic antimicrobial activity against Staphylococcus aureus 43300 assessed as fractional inhibitory concentration index in presence of thymol by checkerboard broth microdilution assay; assay type: functional
# [15] = tested on: Escherichia coli; experiment: Synergistic antimicrobial activity against Escherichia coli 078 assessed as fractional inhibitory concentration index in presence of citral by checkerboard broth microdilution assay; assay type: functional, 78
# [16] = tested on: Escherichia coli; experiment: Antimicrobial activity against Escherichia coli UB 1005 assessed as reduction in microbial growth by CLSI based broth microdilution method; assay type: functional
# [17] = tested on: Staphylococcus aureus; experiment: Antimicrobial activity against Staphylococcus aureus ATCC 29213 assessed as reduction in microbial growth in presence of cuminaldehyde by CLSI based broth microdilution method; assay type: functional
# [18] = tested on: Escherichia coli; experiment: Antimicrobial activity against Escherichia coli UB 1005 assessed as reduction in microbial growth in presence of cuminaldehyde by CLSI based broth microdilution method; assay type: functional
# [19] = tested on: Salmonella typhimurium; experiment: Synergistic antimicrobial activity against Salmonella typhimurium 14028 assessed as fractional inhibitory concentration index in presence of citral by checkerboard broth microdilution assay; assay type: functional, Salmonella enterica subsp. enterica serovar Typhimurium
# [20] = tested on: Escherichia coli; experiment: Synergistic antimicrobial activity against Escherichia coli K99 assessed as fractional inhibitory concentration index in presence of citronellal by checkerboard broth microdilution assay; assay type: functional
# [21] = Synergistic antimicrobial activity against Salmonella enterica subsp. enterica serovar Pullorum 7913 assessed as fractional inhibitory concentration index in presence of perillaldehyde by checkerboard broth microdilution assay; assay type: functional
# [22] = tested on: Pseudomonas aeruginosa; experiment: Synergistic antimicrobial activity against Pseudomonas aeruginosa 27853 assessed as fractional inhibitory concentration index in presence of carvacrol by checkerboard broth microdilution assay; assay type: functional
# [23] = tested on: Enterococcus faecalis; experiment: Synergistic antimicrobial activity against Enterococcus faecalis ATCC 29212 assessed as fractional inhibitory concentration by checkerboard broth microdilution assay; assay type: functional
# [24] = tested on: Pseudomonas aeruginosa; experiment: Synergistic antimicrobial activity against Pseudomonas aeruginosa 27853 assessed as fractional inhibitory concentration index in presence of thymol by checkerboard broth microdilution assay; assay type: functional
# [25] = tested on: Staphylococcus aureus; experiment: Synergistic antimicrobial activity against Staphylococcus aureus 29213 assessed as fractional inhibitory concentration index in presence of cuminaldehyde by checkerboard broth microdilution assay; assay type: functional
# [26] = tested on: Escherichia coli; experiment: Synergistic antimicrobial activity against Escherichia coli K88 assessed as fractional inhibitory concentration index in presence of thymol by checkerboard broth microdilution assay; assay type: functional
# [27] = tested on: Salmonella typhimurium; experiment: Synergistic antimicrobial activity against Salmonella typhimurium 14028 assessed as fractional inhibitory concentration index in presence of cuminaldehyde by checkerboard broth microdilution assay; assay type: functional, Salmonella enterica subsp. enterica serovar Typhimurium
# [28] = tested on: Staphylococcus aureus; experiment: Antimicrobial activity against Staphylococcus aureus ATCC 25923 assessed as reduction in microbial growth in presence of cuminaldehyde by CLSI based broth microdilution method; assay type: functional
# [29] = Synergistic antimicrobial activity against Salmonella enterica subsp. enterica serovar Pullorum 7913 assessed as fractional inhibitory concentration index in presence of cuminaldehyde by checkerboard broth microdilution assay; assay type: functional
# [30] = tested on: Staphylococcus aureus; experiment: Antimicrobial activity against Staphylococcus aureus ATCC 29213 assessed as cuminaldehyde MIC by CLSI based broth microdilution method; assay type: functional
# [31] = tested on: Staphylococcus epidermidis; experiment: Antimicrobial activity against Staphylococcus epidermidis ATCC 12228 assessed as reduction in microbial growth by CLSI based broth microdilution method; assay type: functional
# [32] = tested on: Escherichia coli; experiment: Antimicrobial activity against Escherichia coli K88 assessed as reduction in microbial growth in presence of cuminaldehyde by CLSI based broth microdilution method; assay type: functional
# [33] = tested on: Escherichia coli; experiment: Synergistic antimicrobial activity against Escherichia coli UB1005 assessed as fractional inhibitory concentration index in presence of citral by checkerboard broth microdilution assay; assay type: functional
# [34] = tested on: Escherichia coli; experiment: Synergistic antimicrobial activity against Escherichia coli K99 assessed as fractional inhibitory concentration index in presence of carvacrol by checkerboard broth microdilution assay; assay type: functional
# [35] = tested on: Escherichia coli; experiment: Synergistic antimicrobial activity against Escherichia coli K88 assessed as fractional inhibitory concentration by checkerboard broth microdilution assay; assay type: functional
# [36] = Synergistic antimicrobial activity against Salmonella enterica subsp. enterica serovar Pullorum 7913 assessed as fractional inhibitory concentration index in presence of citral by checkerboard broth microdilution assay; assay type: functional
# [37] = tested on: Escherichia coli; experiment: Synergistic antimicrobial activity against Escherichia coli UB1005 assessed as fractional inhibitory concentration index in presence of perillaldehyde by checkerboard broth microdilution assay; assay type: functional
# [38] = tested on: Escherichia coli; experiment: Drug resistance, ratio of MIC for Escherichia coli ATCC 25922 after 30 passages to MIC for Escherichia coli ATCC 25922 […] after initial exposure; assay type: functional
# [39] = tested on: Salmonella typhimurium; experiment: Synergistic antimicrobial activity against Salmonella typhimurium 14028 assessed as fractional inhibitory concentration index in presence of carvacrol by checkerboard broth microdilution assay; assay type: functional, Salmonella enterica subsp. enterica serovar Typhimurium
# [40] = tested on: Escherichia coli; experiment: Synergistic antimicrobial activity against Escherichia coli 078 assessed as fractional inhibitory concentration by checkerboard broth microdilution assay; assay type: functional
# [41] = tested on: Staphylococcus epidermidis; experiment: Synergistic antimicrobial activity against Staphylococcus epidermidis 12228 assessed as fractional inhibitory concentration index in presence of citral by checkerboard broth microdilution assay; assay type: functional
# [42] = tested on: Escherichia coli; experiment: Synergistic antimicrobial activity against Escherichia coli K88 assessed as fractional inhibitory concentration index in presence of carvacrol by checkerboard broth microdilution assay; assay type: functional
# [43] = tested on: Salmonella typhimurium; experiment: Synergistic antimicrobial activity against Salmonella typhimurium ATCC 7731 assessed as fractional inhibitory concentration by checkerboard broth microdilution assay; assay type: functional, Salmonella enterica subsp. enterica serovar Typhimurium
smiles,measurement,setting,value
CC[C@H](C)[C@H](NC(=O)[C@@H](NC(=O)[C@@H](CCCNC(=N)N)NC(=O)[C@H](C)NC(=O)[C@H](C)NC(=O)[C@@H](N)Cc1cccc2ccccc12)[C@@H](C)CC)C(=O)N[C@@H](CC(C)C)C(=O)N[C@H](CCCNC(=N)N)C(=O)N[C@@H](Cc1c[nH]c2ccccc12)C(=O)N[C@H](CCCNC(=N)N)C(=O)N[C@@H](Cc1ccccc1)C(=O)N[C@@H](CCCNC(=N)N)C(=O)O,fractional inhibitory concentration index (FICI),[1],0.141
same,MIC,[2],256 µg/mL
same,MIC,[3],1020 µg/mL
same,fractional inhibitory concentration index (FICI),[4],0.5
same,fractional inhibitory concentration index (FICI),[5],0.25
same,fractional inhibitory concentration index (FICI),[6],0.125
same,fractional inhibitory concentration index (FICI),[7],0.75
same,MIC,[8],8 µg/mL
same,MIC,[9],2 µg/mL
same,MIC,[10],4 µg/mL
same,FIC,[11],0.125
same,fractional inhibitory concentration index (FICI),[12],0.25
same,fractional inhibitory concentration index (FICI),[13],0.375
same,fractional inhibitory concentration index (FICI),[14],0.75
same,fractional inhibitory concentration index (FICI),[15],0.094
same,MIC,[16],16 µg/mL
same,MIC,[17],2 µg/mL
same,MIC,[18],0.5 µg/mL
same,fractional inhibitory concentration index (FICI),[19],0.141
same,fractional inhibitory concentration index (FICI),[20],0.516
same,fractional inhibitory concentration index (FICI),[21],0.375
same,fractional inhibitory concentration index (FICI),[22],0.5
same,FIC,[23],0.125
same,fractional inhibitory concentration index (FICI),[24],0.25
same,fractional inhibitory concentration index (FICI),[25],0.094
same,fractional inhibitory concentration index (FICI),[26],0.313
same,fractional inhibitory concentration index (FICI),[27],0.25
same,MIC,[28],8 µg/mL
same,fractional inhibitory concentration index (FICI),[29],0.125
same,MIC,[30],512 µg/mL
same,MIC,[31],4 µg/mL
same,MIC,[32],2 µg/mL
same,fractional inhibitory concentration index (FICI),[33],0.257
same,fractional inhibitory concentration index (FICI),[34],0.5
same,FIC,[35],0.063
same,fractional inhibitory concentration index (FICI),[36],0.25
same,fractional inhibitory concentration index (FICI),[37],0.281
same,Ratio,[38],2
same,fractional inhibitory concentration index (FICI),[39],0.5
same,FIC,[40],0.063
same,fractional inhibitory concentration index (FICI),[41],0.5
same,fractional inhibitory concentration index (FICI),[42],0.313
same,FIC,[43],0.063
